22 compounds from PubChem BioAssay (NCI) can be followed below.

Assay in all cases: growth of human tumour cells (NCI), 48 h
Assay [1] relates to 786-0 renal.
Assay [2] relates to SW-620 colon.
The subject of assay [3] is NCI-H23 lung.
Assay [4] deals with SF-539 CNS.
The subject of assay [5] is K-562 leukemia.
Assay [6] relates to OVCAR-8 ovarian.
The test system of assay [7] is SR leukemia.
The test system of assay [8] is UACC-62 melanoma.
For assay [9], the system named is OVCAR-3 ovarian.
For assay [10], the system named is HCC-2998 colon.

Molecules are shown by their SMILES. Where “and” joins values, the source holds several entries; their conditions need not be identical. Identical values can stand only once.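 The compound was tested at five concentrations on cells cultured in 96-well plates, with a 48-hour exposure period. The concentration for 50% growth inhibition is given as GI50. TGI: concentration producing complete growth inhibition.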 A value given as a limit tells only on which side of the number the result lay.

As to `CC(C)(C)N/N=C(\Cc1occc(=O)c1O)C(=O)Nc1ccc([N+](=O)[O-])cc1[N+](=O)[O-]`, the TGI in assay [1], in assay [2], in [3], in assay [4], in assay [5] and in [6] was above 100 µM in each case. In addition, the TGI in [7] and in [8] was above 100 µM in each case.
In the case of `C/C=C(\C)c1cc(=O)c2c(C)cc3c(c2o1)C(=O)c1c(O)c(C2CC(C)(N(C)C)C(O)C(C)O2)cc(C2CC(N(C)C)C(O)C(C)O2)c1C3=O` (configuration not stated), the TGI was 0.946 µM in [1]; 1.96 µM and 16.7 µM in assay [2]; 1.03 µM and 9.29 µM in assay [3]; above 53.6 µM in assay [5]; 12 µM in assay [7].
On to `[N-]=[N+]=Nc1ccc(CCN2CCN(c3cccc(C(F)(F)F)c3)CC2)cc1I`, for which the TGI in assay [1], in [2], in assay [3], in assay [4], in assay [5] and in assay [9] was above 100 µM each time. Moreover, the TGI in assay [6], in [7] and in assay [8] was above 100 µM throughout.
In the case of `CC(N=C(N)N)C(=O)O` (configuration not stated), the TGI in assay [1], in assay [2], in [3], in assay [5], in assay [9] and in assay [10] was above 100 µM in each case. The TGI in assay [6], in assay [7] and in assay [8] was above 100 µM throughout.
`CN(Cc1cnc(N)nc1N)c1ccc(C(=O)O)cc1`: the GI50 in assay [1], in assay [2], in assay [3], in assay [4], in [9] and in assay [10] was above 100 µM in each case. The GI50 in [6], in [7] and in assay [8] was above 100 µM each time. For the same compound, the TGI in assay [1], in assay [2], in assay [3], in assay [4], in assay [9] and in assay [10] was above 100 µM in each case. The TGI in assay [6], in assay [7] and in [8] was above 100 µM each time.
Take `COc1cccc(C(=O)Nc2ccc(CN3CCc4nc5cc(OC)c(OC)cc5cc43)cc2)c1`: the GI50 in [1] is 3.02 µM; in [2], 4.16 µM; in assay [3], 4.5 µM; in [4], 5.51 µM; in assay [5], 3.72 µM; in assay [10] it was 4.81 µM. Besides, the GI50 was 3.88 µM in assay [6], 3.07 µM in [7] and 7.13 µM in assay [8]. Also, the TGI amounted to 9.71 µM in assay [1]; 19.4 µM in assay [2]; 25.4 µM in [3]; 23.8 µM in assay [4]; 15.5 µM in assay [5]; 18.5 µM in [10]. Moreover, the TGI in assay [6] is above 100 µM; in assay [7], 9.64 µM; in [8], 21.3 µM.
Regarding `O=C(CCN1CCOCC1)Nc1ccc(F)cc1F`, the TGI in assay [1], in assay [2], in assay [3], in [4], in [5] and in assay [9] was above 100 µM throughout. The TGI in assay [6], in [7] and in assay [8] was above 100 µM each time.
Take `COc1ccc2c(c1)[C@]1(C[C@H]1c1ccc3c(/C=C/c4ccc(CN5C[C@@H](C)O[C@@H](C)C5)cc4)n[nH]c3c1)C(=O)N2`: the GI50 in [1] is 2.3 µM; in [2], 2.46 µM; in assay [3], 2.87 µM; in assay [4] it was 1.63 µM; in assay [9], 4.19 µM; in assay [10], 4.18 µM. Also, the results for the GI50 in assay [6], in assay [7] and in assay [8] were 5.06 µM, 0.269 µM and 9.79 µM, respectively. Moreover, the TGI was 8.58 µM in assay [1]; above 61 µM in [2]; 31.8 µM in assay [3]; 4.63 µM in assay [4]; 18.5 µM in assay [9]; above 59.7 µM in [10]. Also, the TGI in assay [6] is 51.1 µM; in [7] it was 6.61 µM; in assay [8] it was 39.6 µM.
Take `COc1cc(/C=N/Nc2ncnc3c2cnn3C(C)C)ccc1O`: the GI50 is 10.8 µM in assay [1]; 8.41 µM in assay [2]; 6.05 µM in assay [3]; 4.76 µM in [4]; 7.2 µM in assay [5]; 8.47 µM in [9]. Moreover, the figures for the GI50 in assay [10], in assay [6] and in assay [8] were 17.3 µM, 6.37 µM and 6.98 µM, respectively. Further, the TGI in assay [1] is above 25 µM; in assay [2], above 25 µM; in assay [3], above 25 µM; in [4], 15.2 µM; in assay [5], above 25 µM; in assay [9] it was above 25 µM. Further, the TGI in assay [10] is above 25 µM; in assay [6], above 25 µM; in [8], above 20.9 µM.
Turning to `O=C(Cn1c(=O)c(-c2ccccc2)nc2ccccc21)c1ccc(Cl)cc1`, the GI50 is 27 µM in assay [1]; above 100 µM in assay [2]; above 100 µM in assay [3]; above 100 µM in assay [5]; 46.6 µM in assay [9]; 99.5 µM in assay [10]. Moreover, the GI50 was 51.9 µM in [6], 37.1 µM in assay [7] and above 100 µM in assay [8]. The TGI in [1] was 86.6 µM; in assay [2] it was above 100 µM; in assay [3], above 100 µM; in assay [5], above 100 µM; in [9], above 100 µM; in assay [10], above 100 µM. Further, the TGI in assay [6], in assay [7] and in assay [8] was above 100 µM each time.
As for `COc1cc([N+](=O)[O-])c(S(=O)(=O)O)cc1NS(=O)(=O)c1ccc(C)cc1`, the TGI in assay [1], in assay [2], in [3], in assay [4], in assay [5] and in assay [9] was above 100 µM each time. Besides, the TGI in assay [6], in assay [7] and in assay [8] was above 100 µM in each case.
On to `CN(C)c1ccc2c(c1)CN1C(=O)c3ccccc3C1=N2`, for which the GI50 in assay [1], in assay [2], in assay [3], in [4], in [9] and in assay [6] was above 100 µM in each case. The GI50 in assay [7] and in assay [8] was above 100 µM each time. The TGI in [1], in assay [2], in assay [3], in [4], in assay [9] and in assay [6] was above 100 µM in each case. For the same compound, the TGI in [7] and in [8] was above 100 µM each time.
Consider `CCN(CC)C(=O)CC1=C(C)/C(=C/c2[nH]c(-c3ccc[nH]3)cc2OC)N=C1C`, for which the GI50 is 0.549 µM in assay [1]; 0.334 µM in assay [2]; 0.794 µM in assay [3]; 0.498 µM in [4]; 0.509 µM in [9]; 0.455 µM in assay [6]. Moreover, the GI50 in [7] is 0.289 µM. In addition, the TGI turned out to be 3.36 µM in assay [1]; 13.4 µM in [2]; 71.9 µM in assay [3]; 12.2 µM in [4]; 14.1 µM in [9]; 22.5 µM in assay [6]. For the same compound, the TGI in [7] worked out at 0.994 µM.
Take `CCNC(C)(C)C(SS)c1ccc(Br)cc1` (configuration not stated): the TGI in assay [1] was 49.6 µM; in assay [2], 56.2 µM; in assay [3] it was above 100 µM; in assay [4], above 100 µM; in [5], above 100 µM; in [9] it was above 100 µM. Moreover, the TGI in assay [6], in assay [7] and in [8] was above 100 µM each time.
`O=[N+]([O-])c1cc([N+](=O)[O-])c(Cl)c(Cl)c1Cl`: the GI50 is 0.804 µM in assay [1]; 0.535 µM in assay [2]; 2.69 µM in assay [3]; 0.725 µM in [5]; 1.18 µM in [9]; 2.84 µM in assay [10]. Moreover, the GI50 in assay [6] is 1.94 µM; in assay [7], 0.639 µM; in assay [8] it was 1.31 µM. Also, the TGI is 2.09 µM in [1]; 1.94 µM in assay [2]; 8.04 µM in assay [3]; 10.9 µM in [5]; 2.4 µM in assay [9]; 8.32 µM in assay [10]. In addition, the TGI in assay [6] was 4.57 µM; in [7] it was 5.86 µM; in [8], 2.64 µM.
Take `N=CCCN(CCC=N)c1ccc(/C=C2\CN(NC(=O)c3ccc(Cl)cc3)C(c3ccccc3)=N2)cc1`: the TGI was above 100 µM in [1]; 30.6 µM in assay [2]; above 100 µM in assay [3]; above 100 µM in [4]; above 100 µM in [5]; above 100 µM in assay [9]. Besides, the TGI in [10], in assay [6] and in assay [8] was above 100 µM each time.
`O=C(/C=C/C12c3ccccc3C(c3ccccc31)C1C(=O)N(c3ccccc3)C(=O)C12)c1ccc(Cl)cc1` (configuration not stated): the GI50 in [1] is 2.44 µM; in [2], 2.27 µM; in assay [3], 2.61 µM; in assay [4] it was 1.69 µM; in assay [5], 1.55 µM; in assay [10] it was 1.7 µM. In addition, the GI50 is 1.43 µM in [6], 1.07 µM in assay [7] and 1.66 µM in assay [8]. Besides, the TGI is 6.97 µM in assay [1]; above 100 µM in assay [2]; 13.2 µM in [3]; 3.79 µM in [4]; above 100 µM in [5]; 3.66 µM in assay [10]. The values for the TGI in [6], in assay [7] and in [8] were above 100 µM, above 100 µM and 4.58 µM, respectively.
Consider `CC1(C)C(c2ccccc2)C12CCC1(C2=O)C(c2ccccc2)C1(C)C` (configuration not stated), for which the TGI amounted to 66.2 µM in assay [1]; 46.8 µM in assay [2]; 44.6 µM in assay [3]; 75.2 µM in [4]; 38.4 µM in assay [5]; 43.5 µM in assay [9]. In addition, the TGI is 34.4 µM in [10], above 100 µM in [6] and above 100 µM in assay [8].
Regarding `CCOC(=O)c1cc(/C=C/C(C)=C/C(=O)OC)oc1-c1ccccc1`, the TGI in assay [1], in assay [2], in assay [3], in assay [4], in [5] and in [9] was above 100 µM throughout. Besides, the TGI in [10], in assay [6] and in assay [8] was above 100 µM in each case.
For `Nc1ncnc2c1ncn2C1OC(CSC(F)(F)F)C(O)C1O` (configuration not stated), the TGI in [1], in [2], in assay [3], in assay [4], in assay [5] and in [9] was above 100 µM throughout. Besides, the TGI in assay [10], in assay [6] and in [8] was above 100 µM in each case.
As for `CCOC(=O)C1=C(C)NC2SC(=O)/C(=C\c3ccccc3Cl)N2C1c1ccccc1` (configuration not stated), the GI50 in [1], in assay [2], in [3], in assay [4], in [5] and in [9] was above 100 µM each time. Besides, the GI50 in assay [10], in assay [6] and in assay [8] was above 100 µM throughout. In addition, the TGI in assay [1], in assay [2], in assay [3], in assay [4], in assay [5] and in [9] was above 100 µM throughout. Besides, the TGI in assay [10], in [6] and in [8] was above 100 µM throughout.
`NC1=NC(c2ccc(Cl)cc2)N(c2ccc(S(=O)(=O)Nc3ncccn3)cc2)C(N)=N1` (configuration not stated): the TGI in assay [1], in assay [2], in [3], in assay [4], in [5] and in [9] was above 100 µM throughout. The TGI in assay [6], in assay [7] and in assay [8] was above 100 µM each time.
